Values of other authors as cited in paper PMC10275055, “Preventing recurrence in Sonic Hedgehog Subgroup Medulloblastoma using the OLIG2 inhibitor CT-179” (Research Square, 2023).

System: OLIG2 dimerization and DNA binding
Parameters: method as in PMID 26517684, PMID 31953259
Details: cited from earlier work

CCN1CCCC(Nc2cc(C)nc(/N=C(\N)Nc3ccc(Cl)c(Cl)c3)n2)C1 (stereo not shown) [SKOG102]
effect on OLIG2 dimerization and DNA binding: disrupts OLIG2 dimerization and DNA binding
